# Reference: US5614627A, “Quinazoline compounds” (Eisai Co., Ltd., priority 1993, dated 1997)
# Where a name gives a salt, the structure may show the parent alone.
# Target: T1, calmodulin-dependent cGMP-phosphodiesterase (CaM-PDE) (Sus scrofa, UniProt A0A5G2RLV3)
# T1 construct: prepared from swine aorta; from tissue; host or cells: swine aorta
# Experiment: enzyme-inhibitory activity with calmodulin-dependent cGMP-phosphodiesterase (CaM-PDE) obtained from swine aorta
# Format: biochemical
# Conditions: 1 μM cGMP as substrate, 1 mM Ca++, calmodulin 250 U/ml, DMSO 4% or below
# Experimental: Study on enzyme-inhibitory activity with calmodulin-dependent cGMP-phosphodiesterase obtained from swine aorta The enzyme activity of calmodulin-dependent cGMP-phosphodiesterase (hereinafter referred to CaM-PDE) prepared from swine aorta was determined according to the method of Thompson et al. The emzyme activity was determined in the presence of 1 mM of calcium ion (Ca^++) and calmodulin (250 U/ml) by the use of 1 μM of cGMP as the substrate. The compound of the present invention was dissolved in DMSO and added to the reaction liquid. The final concentration of DMSO in the reaction solution was adjusted to 4% or below. The preparation of the CaM-PDE was effected according to the method [[…]. and Saito, I., Isolation of cyclic nucleotide phosphodiesterase isozymes from pig aorta, Biochem. Pharmacol. in press] by the use of swine aorta. The CaM-PDE inhibitory activity of the compounds of the present invention as determined by the above method are given in Table 1.
row,IC50,SMILES
1,4300 nM,"CCN(CC)c1nc(Cl)nc2c(OC)c(OC)c(OC)cc12 [Example 51, 2-Chloro-4-diethylamino-6,7,8-trimethoxyquinazoline]"
2,170 nM,"CCCNc1ncnc2c(OC)c(OC)c(OC)cc12 [Example 40, 4-Propylamino-6,7-trimethoxyquinazoline]"
3,4000 nM,"COc1cc2c(N3CCOCC3)ncnc2c(OC)c1OC [Example 68, 4-Morpholino-6,7,8-trimethoxyquinazoline hydrochloride]"
4,300 nM,"CCN(CC)c1ncnc2c(OC)c(OC)c(OC)cc12 [Example 41, 4-Diethylamino-6,7,8-trimethoxyquinazoline hydrochloride]"
5,10700 nM,"COc1cc2c(N3CCN(c4ncccn4)CC3)ncnc2c(OC)c1OC [Example 65, 4-[4-(2-Pyrimidyl)piperazin-1-yl]-6,7,8-trimethoxyquinazoline]"
6,2800 nM,"COc1cc2c(N3CCC(C(O)c4ccc(F)cc4)CC3)ncnc2c(OC)c1OC (stereo not drawn) [Example 58, 4-[4-(4-Fluoro-α-hydroxybenzyl)piperidino]-6,7,8-trimethoxyquinazolin]"
7,6400 nM,"COc1cc2c(NCCCCC#N)ncnc2c(OC)c1OC [Example 32, 4-(4-Cyanobutyl)amino-6,7,8-trimethoxyquinzaoline]"
8,480 nM,"COc1cc2c(NCCCC(=O)O)ncnc2c(OC)c1OC [Example 2, 4-(3-Carboxypropyl)amino-6,7,8-trimethoxyquinazoline]"
9,420 nM,"COc1cc2c(N3CCC(C(=O)O)CC3)ncnc2c(OC)c1OC [Example 20, 4-(4-Carboxypiperidino)-6,7,8-trimethoxyquinazoline]"
10,2350 nM,"CCOC(=O)CCCCCNc1ncnc2c(OC)c(OC)c(OC)cc12 [Example 3, 4-(5-Ethoxycarbonylpentyl)amino-6,7,8-trimethoxyquinazoline]"
11,740 nM,"CCN(CC)c1ncnc2c(OC)cc(OC)cc12 [Example 43, 4-Diethylamino-6,8-dimethoxyquinazoline hydrochloride]"
12,730 nM,"COc1cc2c(N(C)CCCC(=O)O)ncnc2c(OC)c1OC [Example 18, 4-[N-(3-Carboxypropyl)-N-methylaminol-]6,7,8, -trimethoxyquinazoline]"
13,1100 nM,"COc1cc2c(N3CCC(=O)CC3)ncnc2c(OC)c1OC [Example 61, 4-(4-Oxopiperidino)-6,7,8-trimethoxyquinazoline]"
14,7900 nM,"Clc1ccc2ncnc(NCCCn3ccnc3)c2c1 [Example 38, 6-Chloro-4-[3-(imidazol-1-yl)propyl]aminoquinazoline]"
15,1290 nM,"COc1cc2c(NCCCCC(=O)O)ncnc2c(OC)c1OC [Example 14, 4-(4-Carboxybutyl)amino-6,7,8-trimethoxyuinazoline]"
16,3500 nM,"COc1cc2c(NCCCCCCC(=O)O)ncnc2c(OC)c1OC [Example 12, 4-(6-Carboxyhexyl)amino-6,7,8-trimethoxyquinazoline]"
17,53900 nM,"O=C(O)CCCCCNc1ncnc2ccc(Cl)cc12 [Example 10, 4-(5-Carboxypentyl)amino-6-chloroquinazolne]"
18,1650 nM,"COc1cc2c(NCCCCCC(=O)O)ncnc2c(OC)c1OC [Example 16, 4-(5-Carboxypentyl)amino-6,7,8-trimethoxyquinazoline]"
19,3620 nM,"COc1cc2c(NCCCCCCCC(=O)O)ncnc2c(OC)c1OC [Example 15, 4-(7-Carboxyheptyl)amino-6,7,8,-trimethoxyquinazoline]"
20,4620 nM,"CCOC(=O)CCNc1ncnc2c(OC)c(OC)c(OC)cc12 [Example 7, 4-(2-Ethoxycarbonylethyl)amino-6,7,8-trimethoxyquinazoline]"
21,740 nM,"COc1cc2c(N3CCC(O)CC3)ncnc2c(OC)c1OC [Example 62, 4-(4-Hydroxypiperidino)-6,7,8-trimethoxyquinazoline]"
22,2370 nM,"COc1cc2c(NCCC(=O)O)ncnc2c(OC)c1OC [Example 13, 4-(2-Carboxyethyl)amino-6,7,8-trimethoxyquinazoline]"
23,1900 nM,"COc1cc2c(NCCCO)ncnc2c(OC)c1OC [Example 35, 4-(3-Hydroxypropyl)amino-6,7.8-trimethoxyquinazoline]"
24,11600 nM,"COc1cc2c(N3CCC(C(=O)c4ccc(F)cc4)CC3)ncnc2c(OC)c1OC [Example 57, 4-[4-(4-Fluorobenzoyl)piperidino]-6,7,8-trimethoxyquinazoline]"
